The supplement of paper PMC10307832

Legend:
Experiment in all cases: relative viability (nuclei count vs DMSO), 5 days (fraction); higher = more cells survive
BEN = test system: BEN
Outline: (§1)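 One day after seeding in 1536-well plates, lung cancer cell lines were dosed by pin tool. Dosing was either single-drug or a fixed anchor-drug dose plus five library-drug doses (not always all listed) in √10 steps. After 5 days, nuclei were stained in one fix-and-stain step and counted on 4× images, and relative viability is the nuclei count of treated wells over that of vehicle wells, given as the median of duplicate plates.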

ChaGo-K-1 = test system: ChaGo-K-1
Outline: as §1

HCC-78 = test system: HCC-78
Outline: as §1

LC-2-ad = test system: LC-2-ad
Outline: as §1

LCLC-97TM1 = test system: LCLC-97TM1
Outline: as §1

LK-2 = test system: LK-2
Outline: as §1

LU99A = test system: LU99A
Outline: as §1

LXF-289 = test system: LXF-289
Outline: as §1

NCI-H1355 = test system: NCI-H1355
Outline: as §1

NCI-H1651 = test system: NCI-H1651
Outline: as §1

NCI-H1666 = test system: NCI-H1666
Outline: as §1

NCI-H1944 = test system: NCI-H1944
Outline: as §1

NCI-H1975 = test system: NCI-H1975
Outline: as §1

NCI-H2087 = test system: NCI-H2087
Outline: as §1

NCI-H596 = test system: NCI-H596
Outline: as §1

NCI-H838 = test system: NCI-H838
Outline: as §1

PC-3 [JPC-3] = test system: PC-3 [JPC-3]
Outline: as §1

SK-MES-1 = test system: SK-MES-1
Outline: as §1

Structure (SMILES): O=c1cc(N2CCOCC2)oc2c(-c3cccc4c3sc3ccccc34)cccc12 + CC1(C)CCC(c2ccc(Cl)cc2)=C(CN2CCN(c3ccc(C(=O)NS(=O)(=O)c4ccc(N[C@H](CCN5CCOCC5)CSc5ccccc5)c(S(=O)(=O)C(F)(F)F)c4)cc3)CC2)C1 [Navitoclax] (partner 0.5 µM)
- relative viability (BEN; first compound 0.01 µM): 0.155
- relative viability (BEN; first compound 0.03162 µM): 0.0681
- relative viability (BEN; first compound 0.1 µM): 0.0673
- relative viability (BEN; first compound 0.3162 µM): 0.0807
- relative viability (BEN; first compound 1 µM): 0.0563
- relative viability (ChaGo-K-1; first compound 0.01 µM): 1.04
- relative viability (ChaGo-K-1; first compound 0.03162 µM): 0.927
- relative viability (ChaGo-K-1; first compound 0.1 µM): 0.729
- relative viability (ChaGo-K-1; first compound 0.3162 µM): 1.06
- relative viability (ChaGo-K-1; first compound 1 µM): 0.971
- relative viability (HCC-78; first compound 0.01 µM): 0.742
- relative viability (HCC-78; first compound 0.03162 µM): 0.831
- relative viability (HCC-78; first compound 0.1 µM): 0.756
- relative viability (HCC-78; first compound 0.3162 µM): 0.755
- relative viability (HCC-78; first compound 1 µM): 0.843
- relative viability (LC-2-ad; first compound 0.01 µM): 0.646
- relative viability (LC-2-ad; first compound 0.1 µM): 0.543
- relative viability (LC-2-ad; first compound 0.3162 µM): 0.546
- relative viability (LC-2-ad; first compound 1 µM): 0.386
- relative viability (LCLC-97TM1; first compound 0.01 µM): 0.391
- relative viability (LCLC-97TM1; first compound 0.03162 µM): 0.568
- relative viability (LCLC-97TM1; first compound 0.3162 µM): 0.362
- relative viability (LCLC-97TM1; first compound 1 µM): 0.346
- relative viability (LK-2; first compound 0.01 µM): 0.882
- relative viability (LK-2; first compound 0.03162 µM): 0.886
- relative viability (LK-2; first compound 0.1 µM): 0.896
- relative viability (LK-2; first compound 0.3162 µM): 0.874
- relative viability (LK-2; first compound 1 µM): 1.07
- relative viability (LU99A; first compound 0.01 µM): 0.887
- relative viability (LU99A; first compound 0.03162 µM): 0.955
- relative viability (LU99A; first compound 0.1 µM): 0.884
- relative viability (LU99A; first compound 0.3162 µM): 0.773
- relative viability (LU99A; first compound 1 µM): 0.898
- relative viability (LXF-289; first compound 0.01 µM): 0.924
- relative viability (LXF-289; first compound 0.03162 µM): 0.937
- relative viability (LXF-289; first compound 0.1 µM): 0.938
- relative viability (LXF-289; first compound 0.3162 µM): 0.865
- relative viability (LXF-289; first compound 1 µM): 0.916
- relative viability (NCI-H1355; first compound 0.01 µM): 0.956
- relative viability (NCI-H1355; first compound 0.03162 µM): 0.981
- relative viability (NCI-H1355; first compound 0.3162 µM): 0.941
- relative viability (NCI-H1355; first compound 1 µM): 0.891
- relative viability (NCI-H1651; first compound 0.01 µM): 1.07
- relative viability (NCI-H1651; first compound 0.03162 µM): 0.997
- relative viability (NCI-H1651; first compound 0.1 µM): 1.01
- relative viability (NCI-H1651; first compound 0.3162 µM): 0.991
- relative viability (NCI-H1651; first compound 1 µM): 0.927
- relative viability (NCI-H1666; first compound 0.01 µM): 0.941
- relative viability (NCI-H1666; first compound 0.03162 µM): 0.899
- relative viability (NCI-H1666; first compound 0.1 µM): 0.819
- relative viability (NCI-H1666; first compound 0.3162 µM): 0.798
- relative viability (NCI-H1666; first compound 1 µM): 0.895
- relative viability (NCI-H1944; first compound 0.01 µM): 1.03
- relative viability (NCI-H1944; first compound 0.03162 µM): 1.1
- relative viability (NCI-H1944; first compound 0.1 µM): 1.07
- relative viability (NCI-H1944; first compound 0.3162 µM): 1.09
- relative viability (NCI-H1944; first compound 1 µM): 1.05
- relative viability (NCI-H1975; first compound 0.01 µM): 1.02
- relative viability (NCI-H1975; first compound 0.03162 µM): 1.13
- relative viability (NCI-H1975; first compound 0.1 µM): 1.1
- relative viability (NCI-H1975; first compound 0.3162 µM): 0.985
- relative viability (NCI-H1975; first compound 1 µM): 0.994
- relative viability (NCI-H2087; first compound 0.01 µM): 0.929
- relative viability (NCI-H2087; first compound 0.03162 µM): 0.904
- relative viability (NCI-H2087; first compound 0.1 µM): 1.01
- relative viability (NCI-H2087; first compound 0.3162 µM): 0.919
- relative viability (NCI-H2087; first compound 1 µM): 0.857
- relative viability (NCI-H596; first compound 0.01 µM): 0.928
- relative viability (NCI-H596; first compound 0.03162 µM): 0.945
- relative viability (NCI-H596; first compound 0.1 µM): 0.841
- relative viability (NCI-H596; first compound 0.3162 µM): 0.967
- relative viability (NCI-H596; first compound 1 µM): 1.17
- relative viability (NCI-H838; first compound 0.01 µM): 1.17
- relative viability (NCI-H838; first compound 0.03162 µM): 1.13
- relative viability (NCI-H838; first compound 0.1 µM): 1.13
- relative viability (NCI-H838; first compound 0.3162 µM): 1.1
- relative viability (NCI-H838; first compound 1 µM): 1.1
- relative viability (PC-3 [JPC-3]; first compound 0.01 µM): 0.824
- relative viability (PC-3 [JPC-3]; first compound 0.03162 µM): 0.784
- relative viability (PC-3 [JPC-3]; first compound 0.1 µM): 0.795
- relative viability (PC-3 [JPC-3]; first compound 0.3162 µM): 0.783
- relative viability (PC-3 [JPC-3]; first compound 1 µM): 0.777
- relative viability (SK-MES-1; first compound 0.01 µM): 1.28
- relative viability (SK-MES-1; first compound 0.03162 µM): 1.26
- relative viability (SK-MES-1; first compound 0.1 µM): 1.43
- relative viability (SK-MES-1; first compound 0.3162 µM): 1.26
- relative viability (SK-MES-1; first compound 1 µM): 1.13
